For one test, the system named is GST:FCA-WW-FY. Briefly: ABA binding to and dissociation of pre-formed FCA-FY complex. On the set-up: species or system Arabidopsis. How it is done:
The GST:FCA-WW-FY interaction mixture was incubated for 90 minutes before 1 μM ^3H^+-ABA was added and the mixture pelletted, washed, and the dual activity for [^35S]-met-FY and ^3H^+-ABA were counted as described above.

Test [1] has as its target T1, FCA protein (Arabidopsis thaliana, UniProt O04425).
T1 sequence (O04425 1-747 isoform O04425-1): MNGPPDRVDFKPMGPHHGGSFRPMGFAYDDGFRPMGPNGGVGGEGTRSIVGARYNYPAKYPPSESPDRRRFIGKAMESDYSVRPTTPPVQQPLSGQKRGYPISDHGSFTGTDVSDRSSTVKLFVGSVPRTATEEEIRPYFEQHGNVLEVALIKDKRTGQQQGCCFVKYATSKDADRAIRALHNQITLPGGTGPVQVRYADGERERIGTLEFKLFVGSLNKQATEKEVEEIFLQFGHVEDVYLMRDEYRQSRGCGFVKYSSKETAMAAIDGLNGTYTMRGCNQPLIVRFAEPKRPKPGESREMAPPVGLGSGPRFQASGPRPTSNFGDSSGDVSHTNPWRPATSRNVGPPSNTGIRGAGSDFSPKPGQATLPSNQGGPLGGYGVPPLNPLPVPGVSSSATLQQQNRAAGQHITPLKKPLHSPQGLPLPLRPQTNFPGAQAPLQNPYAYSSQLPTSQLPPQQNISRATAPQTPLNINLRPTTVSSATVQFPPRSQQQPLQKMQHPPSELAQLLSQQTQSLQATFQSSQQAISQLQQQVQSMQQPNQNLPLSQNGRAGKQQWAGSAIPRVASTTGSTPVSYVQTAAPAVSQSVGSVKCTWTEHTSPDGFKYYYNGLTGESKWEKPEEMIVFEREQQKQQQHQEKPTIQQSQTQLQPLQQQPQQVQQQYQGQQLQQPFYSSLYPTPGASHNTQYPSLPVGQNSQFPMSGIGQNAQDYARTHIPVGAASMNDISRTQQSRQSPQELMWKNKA
Put plainly: ABA binding assay with purified recombinant FCA. Details: Kd; other: analog added in higher concentrations than 3H+-ABA (20-5000 nM); other: Scatchard analysis, r^2=0.88; other: in presence of 5 μM unlabelled (+)-ABA; pH range of maximum; fused on or other part: GST fused on for purification. Here is the method:
(§1) […] The mixture was then rapidly filtered through a nitrocellulose membrane, washed with 0.5× binding buffer, air dried and counted in a scintillation counter (Wallac 1414 WinSpectral v1.40). Heat denatured FCA protein was used to used determine the protein nature of the FCA and BSA was used as a control. All binding studies were carried out using three different GST affinity chromatography protein purifications with triplicate assays for each purification. […] Specific binding was calculated by taking the difference for assays with only ^3H^+-ABA (total binding) and assays that also contained 5 μM (±)-ABA added at the same time as ^3H^+-ABA (non-specific binding). Binding was represented as the number of moles of ^3H^+-ABA per mole of FCA protein.

Test [2] addresses T1, FCA protein. Briefly: ABA binding assay with purified recombinant FCA. Details: other: in the absence of FY, at 15 min; other: in the absence of FY, at 45 min; fused on or other part: GST fused on. The settings on record: in the absence of FY. How it is done: as §1
A further test relates to FCA-RRM. Briefly: Preliminary ABA-binding assays using crude lysate from FCA-RRM. Details: species or system Arabidopsis. How it is done:
All binding assays were carried out at a final volume of 200 μL at 4° C. for 45 minutes. The mixture was then rapidly filtered through a nitrocellulose membrane, washed with 0.5× binding buffer, air dried and counted in a scintillation counter (Wallac 1414 WinSpectral v1.40). Heat denatured FCA protein was used to used determine the protein nature of the FCA and BSA was used as a control. […] […] Specific binding was calculated by taking the difference for assays with only ^3H^+-ABA (total binding) and assays that also contained 5 μM (±)-ABA added at the same time as ^3H^+-ABA (non-specific binding). Binding was represented as the number of moles of ^3H^+-ABA per mole of FCA protein.

The next test addresses ABAP1 (Hordeum vulgare, UniProt Q9LLX3). Put plainly: ABA binding assay with purified recombinant ABAP1. Details: species or system barley. Here is the method:
Other additions or changes to the incubation system are discussed in the figure legends. All binding assays were carried out at a final volume of 150 μL at 4° C. for 1 hour. The mixture was then rapidly filtered through a nitrocellulose membrane, washed with 5 mL, of cold 0.5× binding buffer by rapid filtration, dried in air and counted in a scintillation counter (Wallac 1414 WinSpectral v1.40). […] The DCC binding mixture was maintained for 15 minutes on ice before centrifugation to precipitate DCC. The resulted supernatant was then counted in a scintillation counter to determine the binding activity. […] Heat denatured ABAP1 protein was used to determine the protein nature of the ABAP1 and BSA was used as a control. All binding studies were carried out using three different protein purifications with triplicate assays for each purification. […] Binding was represented as the number of moles of ^3H^+-ABA per mole of ABAP1 protein.

Chain of ABAP1 (Q9LLX3 entry or part of it): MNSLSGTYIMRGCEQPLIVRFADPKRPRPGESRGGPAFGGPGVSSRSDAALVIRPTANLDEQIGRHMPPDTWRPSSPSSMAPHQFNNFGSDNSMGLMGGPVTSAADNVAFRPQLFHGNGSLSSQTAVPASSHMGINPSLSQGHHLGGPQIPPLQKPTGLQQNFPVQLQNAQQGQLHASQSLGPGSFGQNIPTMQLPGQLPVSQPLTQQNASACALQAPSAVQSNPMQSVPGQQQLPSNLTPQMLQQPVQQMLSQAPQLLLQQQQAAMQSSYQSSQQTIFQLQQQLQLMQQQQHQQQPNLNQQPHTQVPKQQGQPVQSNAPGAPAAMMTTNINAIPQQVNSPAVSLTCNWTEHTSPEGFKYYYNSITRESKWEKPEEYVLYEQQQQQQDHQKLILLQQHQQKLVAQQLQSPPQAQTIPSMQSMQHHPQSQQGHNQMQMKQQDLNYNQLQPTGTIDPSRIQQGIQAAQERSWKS

As to abscisic acid [ABA], the “disruption of FCA-FY complex (displacement of FY)” value in the test on GST:FCA-WW-FY is listed as “capable of disrupting the FCA-FY complex”. For the same substance, the “ABA binding activity of pre-formed FCA-FY complex” value with GST:FCA-WW-FY (1 μM 3H+-ABA added after 90 min FCA-FY incubation) is “initially low but significantly increased after 45 minutes”. The “binding corresponding to 100% binding activity” value at FCA protein [1] (50 nM 3H-(+)-ABA, FIG. 16) was “approximately 0.52 mol ABA mol^−1 protein”. For the same substance, the maximum binding on FCA protein [1] (Scatchard analysis, r^2=0.88) amounted to 0.72 mol mol^−1 protein. Also, the “ratio of ABA bound to FCA” value at FCA protein [1] (Scatchard plot) is recorded as “approximately 0.72 mol ABA mol^−1 protein”. The non-specific binding entry at FCA protein [1] (in presence of 5 μM unlabelled (+)-ABA) is given as “less than 11 % of the total binding”; at ABAP1 (in presence of 5 μM unlabelled ABA) it was “less than 10 % of the total binding”. The “saturation of FCA 3H-(+)-ABA binding activity” value was “approximately 50%” at FCA protein [2] (at 15 min) and “approximately 95%” at FCA protein [2] (at 45 min). For the same substance, the “3H+-ABA binding” value with FCA-RRM was “did not show any”. The “pH of maximum binding activity” value at ABAP1 (3H+-ABA binding at varying pH) came to 7.3. Further, the maximum specific binding on ABAP1 (Scatchard plot analysis, r^2=0.94) is listed as 0.8 mol ABA mold protein. Moreover, at ABAP1 (Scatchard plot, r^2=0.94), the “ratio of ABA bound to ABAP1” value is recorded as “approximately 0.8 mol ABA mol^−1 protein”. Also, the “time maximum binding activity remained stable” value on ABAP1 (additional time after reaching maximum binding) is at least 3 h. For the same substance, the “maximum binding activity (total binding)” value on ABAP1 (association kinetics, total binding) is “≈ 0.7 mol ABA mol^−1 protein”.

The values are drawn from patent US20080235828A1 (University of Manitoba, priority 2004, published 2008).
